From publication PMC7883726 (Acta Pharmaceutica Sinica. B, 2021)
“Also recorded” adds a separate entry of the source. Where two headings read alike, the source gives them in different places.

What was measured:
[1] = system: HEK293T cells; conditions: below 50 μmol/L, CCK-8
[2] = system: HCoV-OC43; test: HCoV-OC43 cytopathic effects; type: cell-based
[3] = system: SARS-CoV-2; conditions: read-out: EC50 SARS-CoV-2 in vitro; cited from earlier work
[4] = molecular target: SARS-CoV-2 Mpro (Severe acute respiratory syndrome coronavirus 2, UniProt P0DTD1); test: SARS-CoV-2 Mpro enzyme activity inhibition assay; type: biochemical; conditions: 10 μmol/L
[5] = rats, orally administered; cited from earlier work
[6] = cited from earlier work
[7] = molecular target: T1, SARS-CoV-2 RdRp (Severe acute respiratory syndrome coronavirus 2, UniProt P0DTD1); test: biochemical; conditions: read-out: inhibition of polymerase activity
[8] = orally administered, cited from earlier work
[9] = molecular target: SARS-CoV-2 RdRp with nsp10–nsp14 exoribonuclease complex (Severe acute respiratory syndrome coronavirus 2, UniProt P0DTD1); type: cell-based; conditions: with versus without nsp10–nsp14
[10] = molecular target: T1, SARS-CoV-2 RdRp; test: cell-based

| Compound | cytotoxicity on HEK293T cells [1] | concentration protecting cells from CPE induced by HCoV-OC43 [2] [µmol/L] | EC50 [3] [µM] | inhibitory effect on SARS-CoV-2 Mpro [4] | maximum plasma concentration (Cmax) [5] [µg/mL] | LD50 [6] | acute dose showing maximum tolerance [6] | toxicity in acute toxicity studies ([6]; oral) | inhibition at 2.5 µM [7] [%] | inhibition at 10 µM [7] [%] | inhibition at 40 µM [7] [%] | half lifetime (t1/2) ([8]; mice and rats) | time to Cmax (Tmax) ([8]; mice and rats) [h] | maximum plasma concentration (Cmax) ([8]; mice) [µg/mL] | fold increase in EC50 on expression of nsp10–nsp14 [9] | EC50 [10] [µM] |
| --- | --- | --- | --- | --- | --- | --- | --- | --- | --- | --- | --- | --- | --- | --- | --- | --- |
| CCC(CC)COC(=O)[C@H](C)N[P@](=O)(OC[C@H]1O[C@@](C#N)(c2ccc3c(N)ncnn23)[C@H](O)[C@@H]1O)Oc1ccccc1 [remdesivir, reference compound] | Neither remdesivir nor RAI-S-37 showed cytotoxicity | 0.39 |  |  |  |  |  |  |  |  |  |  |  |  |  |  |
| NC(=O)c1ncn([C@@H]2O[C@H](CO)[C@@H](O)[C@H]2O)n1 [ribavirin] |  |  | 110 |  |  |  |  |  |  |  |  |  |  |  |  |  |
| O=C(O[C@@H]1O[C@@H]2COC(=O)c3cc(O)c(O)c(O)c3-c3c(cc(O)c(O)c3O)C(=O)O[C@H]([C@H]1O)[C@@H]2O)c1cc(O)c(O)c(O)c1 [RAI-S-37, Corilagin] | Neither remdesivir nor RAI-S-37 showed cytotoxicity | 0.78 |  | did not show any inhibitory effect | 52.37 | 3500–5000 mg/kg b. wt. | up to 3500 mg/kg body weight (b.wt.) | did not show any toxicity | 24 | 73 | 83 | about 6 h | ~2 | 57.0 | same EC50 values; also recorded: remain the same | 3.33 |
